# Data taken from patent publication US20200281202A1 (priority 2017, published 2020).
# Legend:
# [1] = system: Plasmopara viticola; experiment: Plasmopara viticola test in grape, preventive; format: in vivo; details: 50 ppm spray, grape seedlings inoculated one day after treatment; for pest or weed control at 50 ppm: Plasmopara viticola, read-out: control (disease severity) compared to the untreated check
# Experimental: Example B: Plasmopara viticola Test in Grape
# Compounds were dissolved in 2% DMSO/Acetone & then mixed with water to calibrated spray volume of 50 ml. This 50 ml spray solution was poured into the spray bottles for further applications.
# To test the preventive activity of compounds, five week old healthy grape seedlings raised in the greenhouse were sprayed with active compound preparation at the stated application rates inside the spray cabinets using hallow-cone nozzles. One day after treatment, the plants were inoculated with inoculum suspension (Cold sterile water) containing 6×10^6 Plasmopara viticola inoculum. The inoculated plants were then kept in greenhouse chamber at 18-21° C. temperature and 95-100% relative humidity for disease expression. Compounds
# A visual assessment of compound's performance was carried by rating the disease severity (0-100% scale) on treated plants on 3, 7, 10 and 15 days after application. Efficacy (% control) of the compounds was calculated by comparing the disease rating in the treatment with untreated control. The sprayed plants were also assessed for compound's phytotoxic effects by recording symptoms like necrosis, chlorosis and stunting.
# [2] = system: Phytophthora infestans; experiment: whole plant or invertebrate; format: in vivo; details: for pest or weed control at 50 ppm: Phytophthora infestans, in Solanum lycopersicum, read-out: control (disease severity) compared to the untreated check; for control (disease severity) compared to the untreated check: 50 ppm spray, preventive, Tomato plants inoculated one day after treatment
# [3] = system: Phytophthora infestans; experiment: microbe, parasite or virus in culture; format: cell-based; details: for inhibition of growth at 30 ppm: Phytophthora infestans, 168 h, read-out: control (radial growth) compared to the untreated check; for control (radial growth) compared to the untreated check: 30 ppm in Rye Agar medium, seven days at 18° C.
Structure (SMILES),pest or weed control at 50 ppm [1] [%],pest or weed control at 50 ppm [2] [%],inhibition of growth at 30 ppm [3] [%],control (disease severity) compared to the untreated check [1] [%],control (disease severity) compared to the untreated check [2] [%],control (radial growth) compared to the untreated check [3] [%]
"Cn1nc(C(F)(F)F)cc1OCC(=O)N1CCC(c2nc(C3=NOC(c4c(Cl)cc(Cl)cc4Cl)C3)cs2)CC1 (centres unmarked) [Compound 10, 2-((1-methyl-3-(trifluoromethyl)-1H-pyrazol-5-yl)oxy)-1-(4-(4-(5-(2,4,6-trichlorophenyl)-4,5-dihydroisoxazol-3-yl)thiazol-2-yl)piperidin-1-yl)ethan-1-one]",90,90,70,,,
"Cn1nc(OCC(=O)N2CCC(c3nc(C4=NOC(c5c(Cl)cccc5Cl)C4)cs3)CC2)cc1C(F)(F)F (centres unmarked) [Compound 15, 1-(4-(4-(5-(2,6-dichlorophenyl)-4,5-dihydroisoxazol-3-yl)thiazol-2-yl)piperidin-1-yl)-2-((1-methyl-5-(trifluoromethyl)-1H-pyrazol-3-yl)oxy)ethan-1-one]",90,90,70,,,
O=C(COc1ncccc1C(F)(F)F)N1CCC(c2nc(C3=NOC(c4c(Cl)cccc4Cl)C3)cs2)CC1 (centres unmarked) [Compound 27],90,90,70,,,
"CS(=O)(=O)Oc1cccc(Cl)c1C1CC(c2csc(C3CCN(C(=O)COc4ncccc4C(F)(F)F)CC3)n2)=NO1 (centres unmarked) [Compound 28, 3-chloro-2-(3-(2-(1-(2-((3-(trifluoromethyl)pyridin-2-yl)oxy)acetyl)piperidin-4-yl)thiazol-4-yl)-4,5-dihydroisoxazol-5-yl)phenyl methanesulfonate]",,90,70,,,
"O=C(COc1ncccc1C(F)(F)F)N1CCC(c2nc(C3=NOC(c4c(F)cccc4F)C3)cs2)CC1 (centres unmarked) [Compound 29, 1-(4-(4-(5-(2,6-difluorophenyl)-4,5-dihydroisoxazol-3-yl)thiazol-2-yl)piperidin-1-yl)-2-((3-(trifluoromethyl)pyridin-2-yl)oxy) ethan-1-one]",90,90,70,,,
"O=C(COc1ncccc1C(F)(F)F)N1CCC(c2nc(C3=NOC(c4c(Cl)cc(Cl)cc4Cl)C3)cs2)CC1 (centres unmarked) [Compound 30, 1-(4-(4-(5-(2,4,6-trichlorophenyl)-4,5-dihydroisoxazol-3-yl)thiazol-2-yl)piperidin-1-yl)-2-((3-(trifluoromethyl)pyridin-2-yl)oxy)ethan-1-one]",90,90,70,,,
"O=C(COc1ncc(Cl)cc1C(F)(F)F)N1CCC(c2nc(C3=NOC(c4c(Cl)cccc4Cl)C3)cs2)CC1 (centres unmarked) [Compound 31, 2-((5-chloro-3-(trifluoromethyl)pyridin-2-yl)oxy)-1-(4-(4-(5-(2,6-dichlorophenyl)-4,5-dihydroisoxazol-3-yl)thiazol-2-yl)piperidin-1-yl)ethan-1-one]",90,90,70,,,
"CS(=O)(=O)Oc1cccc(Cl)c1C1CC(c2csc(C3CCN(C(=O)COc4ncc(Cl)cc4C(F)(F)F)CC3)n2)=NO1 (centres unmarked) [Compound 32, 3-chloro-2-(3-(2-(1-(2-((5-chloro-3-(trifluoromethyl)pyridin-2-yl)oxy)acetyl)piperidin-4-yl)thiazol-4-yl)-4,5-dihydroisoxazol-5-yl)phenyl methanesulfonate]",90,90,70,,,
O=C(COc1ncc(Cl)cc1C(F)(F)F)N1CCC(c2nc(C3=NOC(c4c(F)cccc4F)C3)cs2)CC1 (centres unmarked) [Compound 33],90,90,70,,,
O=C(COc1ncc(Cl)cc1C(F)(F)F)N1CCC(c2nc(C3=NOC(c4c(Cl)cc(Cl)cc4Cl)C3)cs2)CC1 (centres unmarked) [Compound 34],90,90,70,,,
"O=C(COc1ncc(Br)cc1C(F)(F)F)N1CCC(c2nc(C3=NOC(c4c(Cl)cccc4Cl)C3)cs2)CC1 (centres unmarked) [Compound 35, 2-((5-bromo-3-(trifluoromethyl)pyridin-2-yl)oxy)-1-(4-(4-(5-(2,6-dichlorophenyl)-4,5-dihydroisoxazol-3-yl)thiazol-2-yl)piperidin-1-yl)ethan-1-one]",90,90,70,,,
CS(=O)(=O)Oc1cccc(Cl)c1C1CC(c2csc(C3CCN(C(=O)COc4ncc(Br)cc4C(F)(F)F)CC3)n2)=NO1 (centres unmarked) [Compound 36],90,90,70,,,
"O=C(COc1ncc(Br)cc1C(F)(F)F)N1CCC(c2nc(C3=NOC(c4c(F)cccc4F)C3)cs2)CC1 (centres unmarked) [Compound 37, 2-((5-bromo-3-(trifluoromethyl)pyridin-2-yl)oxy)-1-(4-(4-(5-(2,6-difluorophenyl)-4,5-dihydroisoxazol-3-yl)thiazol-2-yl)piperidin-1-yl)ethan-1-one]",90,90,70,,,
O=C(COc1ncc(Br)cc1C(F)(F)F)N1CCC(c2nc(C3=NOC(c4c(Cl)cc(Cl)cc4Cl)C3)cs2)CC1 (centres unmarked) [Compound 38],,,,90,90,70
"Cc1ccc(C(F)(F)F)c(OCC(=O)N2CCC(c3nc(C4=NOC(c5c(Cl)cc(Cl)cc5Cl)C4)cs3)CC2)n1 (centres unmarked) [Compound 39, 2-((6-methyl-3-(trifluoromethyl)pyridin-2-yl)oxy)-1-(4-(4-(5-(2,4,6-trichlorophenyl)-4,5-dihydroisoxazol-3-yl)thiazol-2-yl)piperidin-1-yl)ethan-1-one]",90,90,70,,,
"Cc1ccc(C(F)(F)F)c(OCC(=O)N2CCC(c3nc(C4=NOC(c5c(F)cccc5F)C4)cs3)CC2)n1 (centres unmarked) [Compound 40, 1-(4-(4-(5-(2,6-difluorophenyl)-4,5-dihydroisoxazol-3-yl)thiazol-2-yl)piperidin-1-yl)-2-((6-methyl-3-(trifluoromethyl)pyridin-2-yl)oxy)ethan-1-one]",,90,70,,,
"Cc1ccc(C(F)(F)F)c(OCC(=O)N2CCC(c3nc(C4=NOC(c5c(Cl)cccc5Cl)C4)cs3)CC2)n1 (centres unmarked) [Compound 41, 1-(4-(4-(5-(2,6-dichlorophenyl)-4,5-dihydroisoxazol-3-yl)thiazol-2-yl)piperidin-1-yl)-2-((6-methyl-3-(trifluoromethyl)pyridin-2-yl)oxy)ethan-1-one]",90,90,70,,,
"Cc1ccc(C(F)(F)F)c(OCC(=O)N2CCC(c3nc(C4=NOC(c5c(Cl)cccc5OS(C)(=O)=O)C4)cs3)CC2)n1 (centres unmarked) [Compound 42, 3-chloro-2-(3-(2-(1-(2-((6-methyl-3-(trifluoromethyl)pyridin-2-yl)oxy)acetyl)piperidin-4-yl)thiazol-4-yl)-4,5-dihydroisoxazol-5-yl)phenyl methanesulfonate]",90,90,70,,,
CS(=O)(=O)Oc1cccc(Cl)c1C1CC(c2csc(C3CCN(C(=O)COc4ncc(C(F)(F)F)cc4Br)CC3)n2)=NO1 (centres unmarked) [Compound 52],90,90,70,,,
"CS(=O)(=O)Oc1cccc(Cl)c1C1CC(c2csc(C3CCN(C(=O)CSc4ncccc4C(F)(F)F)CC3)n2)=NO1 (centres unmarked) [Compound 61, 3-chloro-2-(3-(2-(1-(2-((3-(trifluoromethyl)pyridin-2-yl)thio)acetyl)piperidin-4-yl)thiazol-4-yl)-4,5-dihydroisoxazol-5-yl)phenyl methanesulfonate]",90,90,70,,,
"O=C(CSc1ncccc1C(F)(F)F)N1CCC(c2nc(C3=NOC(c4c(F)cccc4F)C3)cs2)CC1 (centres unmarked) [Compound 62, 1-(4-(4-(5-(2,6-difluorophenyl)-4,5-dihydroisoxazol-3-yl)thiazol-2-yl)piperidin-1-yl)-2-((3-(trifluoromethyl)pyridin-2-yl)thio)ethan-1-one]",90,90,70,,,
COc1ccc(C2CC(c3csc(C4CCN(C(=O)COc5ncc(Cl)cc5C(F)(F)F)CC4)n3)=NO2)cc1 (centres unmarked) [Compound 67],,,,,90,70
"CS(=O)(=O)Oc1cccc2c1COC(c1csc(C3CCN(C(=O)COc4ncccc4C(F)(F)F)CC3)n1)OC2 (centres unmarked) [Compound 91, 3-(2-(1-(2-((3-(trifluoromethyl)pyridin-2-yl)oxy)acetyl)piperidin-4-yl)thiazol-4-yl)-1,5-dihydrobenzo[e][1,3]dioxepin-6-yl methanesulfonate]",,,70,,,
"Cc1ccc(C(F)(F)F)c(OCC(=O)N2CCC(c3nc(C4OCc5cccc(OS(C)(=O)=O)c5CO4)cs3)CC2)n1 (centres unmarked) [Compound 92, 3-(2-(1-(2-((6-methyl-3-(trifluoromethyl)pyridin-2-yl)oxy)acetyl)piperidin-4-yl)thiazol-4-yl)-1,5-dihydrobenzo[e][1,3]dioxepin-6-yl methanesulfonate]",,,70,,,
